According to PubChem BioAssay (NCI):
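Compound exposure: 48 hours, 5 concentrations, 96-well plates. Here, GI50 denotes the concentration required for 50% inhibition of growth. The concentration for full growth arrest is given as TGI.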

Assays:
Assay in all cases: NCI tumour cell line growth inhibition, 48 h
[1] = test system: HOP-62 NSCLC
[2] = test system: 786-0 renal
[3] = test system: KM12 colon
[4] = test system: NCI-H226 lung
[5] = test system: NCI-H460 lung
[6] = test system: SR leukemia
[7] = test system: A549 NSCLC
[8] = test system: MALME-3M melanoma
[9] = test system: ACHN renal
[10] = test system: U251 CNS
[11] = test system: MDA-MB-435
[12] = test system: MCF7 breast
[13] = test system: CCRF-CEM leukemia
[14] = test system: NCI/ADR-RES ovarian
[15] = test system: HOP-92 NSCLC
[16] = test system: M14 melanoma
[17] = test system: SW-620 colon
[18] = test system: SF-539 CNS
[19] = test system: OVCAR-8 ovarian
[20] = test system: NCI-H23 lung
[21] = test system: OVCAR-5 ovarian
[22] = test system: MOLT-4 leukemia
[23] = test system: RPMI-8226 leukemia
[24] = test system: NCI-H522 lung
[25] = test system: OVCAR-3 ovarian
[26] = test system: SK-MEL-2 melanoma
[27] = test system: SF-295 CNS
[28] = test system: UACC-62 melanoma
[29] = test system: SNB-75 CNS
[30] = test system: EKVX NSCLC
[31] = test system: SK-OV-3 ovarian
[32] = test system: HT29 colon
[33] = test system: A498 renal
[34] = test system: SK-MEL-5 melanoma
[35] = test system: IGROV1 ovarian
[36] = test system: SF-268 CNS
[37] = test system: SN12C renal
[38] = test system: MDA-MB-231 breast
[39] = test system: HCT-15 colon
[40] = test system: RXF 393 renal
[41] = test system: T-47D breast
[42] = test system: TK-10 renal
[43] = test system: K-562 leukemia
[44] = test system: OVCAR-4 ovarian
[45] = test system: DU-145 prostate
[46] = test system: SK-MEL-28 melanoma
[47] = test system: LOX IMVI melanoma
[48] = test system: CAKI-1 renal
[49] = test system: UACC-257 melanoma
[50] = test system: BT-549 breast
[51] = test system: HS 578T breast
[52] = test system: HCT-116 colon
[53] = test system: PC-3 prostate
[54] = test system: COLO 205 colon
[55] = test system: UO-31 renal
[56] = test system: SNB-19 CNS
[57] = test system: HCC-2998 colon

Cc1cc(C#Cc2ccc(C(C)(C)C)cc2)ccc1-n1c(/C=C/c2ccc(O)cc2O)nc2ccccc2c1=O
GI50 [1]: 5.88 µM
TGI [1]: 20.5 µM
GI50 [2]: 5.08 µM
TGI [2]: 17.9 µM
GI50 [3]: 3.33 µM
TGI [3]: 10.8 µM
GI50 [4]: 2.17 µM
TGI [4]: 8.25 µM
GI50 [5]: 1.82 µM
TGI [5]: 3.75 µM
GI50 [6]: 2.45 µM
TGI [6]: 6.49 µM
GI50 [7]: 2.83 µM
TGI [7]: 11.1 µM
GI50 [8]: 8.42 µM
TGI [8]: 23.2 µM
GI50 [9]: 3.26 µM
TGI [9]: 13.4 µM
GI50 [10]: 2.11 µM
TGI [10]: 6.03 µM
GI50 [11]: 3.08 µM
TGI [11]: 12.3 µM
GI50 [12]: 2.39 µM
TGI [12]: 9.06 µM
GI50 [13]: 3.85 µM
TGI [13]: > 100 µM
GI50 [14]: 3.17 µM
TGI [14]: 13.4 µM
GI50 [15]: 2.82 µM
TGI [15]: 8.31 µM
GI50 [16]: 5.91 µM
TGI [16]: 25.6 µM
GI50 [17]: 1.81 µM
TGI [17]: 3.71 µM
GI50 [18]: 4.37 µM
TGI [18]: 16.5 µM
GI50 [19]: 3.55 µM
TGI [19]: 12.5 µM
GI50 [20]: 2.42 µM
TGI [20]: 6.8 µM
GI50 [21]: 4.25 µM
TGI [21]: 16.4 µM
GI50 [22]: 2.45 µM
TGI [22]: 10.2 µM
GI50 [23]: 3.1 µM
TGI [23]: 26.9 µM
GI50 [24]: 1.83 µM
TGI [24]: 5.5 µM
GI50 [25]: 3.23 µM
TGI [25]: 12.5 µM
GI50 [26]: 3.52 µM
TGI [26]: 13.4 µM
GI50 [27]: 3.83 µM
TGI [27]: 16.5 µM
GI50 [28]: 3.52 µM
TGI [28]: 13.5 µM
GI50 [29]: 1.87 µM
TGI [29]: 16 µM
GI50 [30]: 3.67 µM
TGI [30]: 16.2 µM
GI50 [31]: 10.9 µM
TGI [31]: 30.6 µM
GI50 [32]: 2.08 µM
TGI [32]: 5.27 µM
GI50 [33]: 2.98 µM
TGI [33]: 11.4 µM
GI50 [34]: 1.77 µM
TGI [34]: 3.98 µM
GI50 [35]: 7.48 µM
TGI [35]: 26.8 µM
GI50 [36]: 4.82 µM
TGI [36]: 18 µM
GI50 [37]: 1.88 µM
TGI [37]: 4.13 µM
GI50 [38]: 3.06 µM
TGI [38]: 9.59 µM
GI50 [39]: 2.74 µM
TGI [39]: 10.2 µM
GI50 [40]: 1.88 µM
TGI [40]: 4.46 µM
GI50 [41]: 3.85 µM
TGI [41]: 24.4 µM
GI50 [42]: 3.82 µM
TGI [42]: 12.8 µM
GI50 [43]: 3.28 µM
TGI [43]: 14.1 µM
GI50 [44]: 3.15 µM
TGI [44]: 14.7 µM
GI50 [45]: 3.42 µM
TGI [45]: 13.3 µM
GI50 [46]: 2.42 µM
TGI [46]: 7.27 µM
GI50 [47]: 1.49 µM
TGI [47]: 2.87 µM
GI50 [48]: 2.87 µM
TGI [48]: 16.2 µM
GI50 [49]: 6.92 µM
TGI [49]: 20.4 µM
GI50 [50]: 8.6 µM
TGI [50]: 33.1 µM
GI50 [51]: 2.2 µM
TGI [51]: 5.87 µM
GI50 [52]: 2.89 µM
TGI [52]: 10.8 µM
GI50 [53]: 3.67 µM
TGI [53]: 16.2 µM
GI50 [54]: 3.02 µM
TGI [54]: 9.59 µM
GI50 [55]: 2.63 µM
TGI [55]: 15.5 µM
GI50 [56]: 7.9 µM
TGI [56]: 22.5 µM
GI50 [57]: 1.93 µM
TGI [57]: 3.85 µM
